Assay [1] relates to TALL-104 CTL human leukemia cells. Put plainly: Cytotoxic T-lymphocyte. It counts as cell-based. Conditions: 100 μM.
A further assay concerns the target HDAC1 (Homo sapiens, UniProt Q13547). In words: HDAC isozyme panel at BPS Bioscience, HDAC1. The class given is biochemical. Conditions: read-out: % inhibition of HDAC1.
In a further assay the target is T1, HDAC10 (Homo sapiens, UniProt Q969S8).
T1 sequence (Q969S8 1-669): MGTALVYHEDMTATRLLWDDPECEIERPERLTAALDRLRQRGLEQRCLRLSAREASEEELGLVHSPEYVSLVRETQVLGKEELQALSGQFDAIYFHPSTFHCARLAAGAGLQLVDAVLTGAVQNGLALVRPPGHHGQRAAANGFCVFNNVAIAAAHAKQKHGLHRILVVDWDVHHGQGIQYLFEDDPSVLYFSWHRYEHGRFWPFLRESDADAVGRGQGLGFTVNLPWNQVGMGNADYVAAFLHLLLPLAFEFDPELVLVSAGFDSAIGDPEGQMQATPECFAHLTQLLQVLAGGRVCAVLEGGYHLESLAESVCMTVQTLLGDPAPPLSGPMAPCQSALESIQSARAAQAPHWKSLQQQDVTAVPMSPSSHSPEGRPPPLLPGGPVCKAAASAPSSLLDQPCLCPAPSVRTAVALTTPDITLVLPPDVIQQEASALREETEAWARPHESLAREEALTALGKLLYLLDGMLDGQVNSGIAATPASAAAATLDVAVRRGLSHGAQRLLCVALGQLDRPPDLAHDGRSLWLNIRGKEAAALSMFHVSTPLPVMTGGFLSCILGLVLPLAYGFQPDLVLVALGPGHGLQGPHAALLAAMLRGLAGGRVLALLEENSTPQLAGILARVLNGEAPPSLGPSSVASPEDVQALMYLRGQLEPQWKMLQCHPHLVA
Put plainly: HDAC isozyme panel at BPS Bioscience, HDAC10. It counts as biochemical. Conditions: read-out: % inhibition of HDAC10.

In another assay the target is T2, HDAC6 (Homo sapiens, UniProt Q9UBN7).
T2 sequence (Q9UBN7 1-1215): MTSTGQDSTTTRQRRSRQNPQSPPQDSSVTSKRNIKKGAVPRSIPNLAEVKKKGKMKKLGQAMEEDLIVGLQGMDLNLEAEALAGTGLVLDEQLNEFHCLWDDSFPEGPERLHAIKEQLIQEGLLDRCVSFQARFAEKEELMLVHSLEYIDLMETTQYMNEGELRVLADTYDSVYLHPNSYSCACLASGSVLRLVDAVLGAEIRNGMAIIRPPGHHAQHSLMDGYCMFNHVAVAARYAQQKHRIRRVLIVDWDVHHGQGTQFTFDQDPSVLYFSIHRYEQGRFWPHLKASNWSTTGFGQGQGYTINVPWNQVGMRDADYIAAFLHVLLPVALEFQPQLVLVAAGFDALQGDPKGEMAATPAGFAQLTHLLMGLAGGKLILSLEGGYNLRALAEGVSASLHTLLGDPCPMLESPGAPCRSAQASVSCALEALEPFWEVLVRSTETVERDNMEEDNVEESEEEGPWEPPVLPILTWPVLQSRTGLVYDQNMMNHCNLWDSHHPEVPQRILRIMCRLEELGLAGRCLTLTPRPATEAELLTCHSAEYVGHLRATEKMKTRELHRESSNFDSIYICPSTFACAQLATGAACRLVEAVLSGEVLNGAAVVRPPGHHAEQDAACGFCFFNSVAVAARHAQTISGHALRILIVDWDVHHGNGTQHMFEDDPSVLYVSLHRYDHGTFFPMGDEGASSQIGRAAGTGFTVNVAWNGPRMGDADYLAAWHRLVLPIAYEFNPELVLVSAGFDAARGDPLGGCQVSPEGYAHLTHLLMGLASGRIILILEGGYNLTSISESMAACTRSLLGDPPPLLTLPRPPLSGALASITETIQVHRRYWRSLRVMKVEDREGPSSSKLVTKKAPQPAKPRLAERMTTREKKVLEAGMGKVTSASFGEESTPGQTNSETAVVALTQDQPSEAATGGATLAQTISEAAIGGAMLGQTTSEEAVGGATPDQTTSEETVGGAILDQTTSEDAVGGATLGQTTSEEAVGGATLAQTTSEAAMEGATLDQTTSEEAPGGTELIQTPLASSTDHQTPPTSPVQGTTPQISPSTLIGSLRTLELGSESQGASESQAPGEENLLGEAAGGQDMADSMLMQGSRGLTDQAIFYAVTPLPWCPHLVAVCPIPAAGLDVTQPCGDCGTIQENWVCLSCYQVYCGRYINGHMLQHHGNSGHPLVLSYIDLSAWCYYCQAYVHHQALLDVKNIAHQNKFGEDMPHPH
Put plainly: HDAC isozyme panel at BPS Bioscience, HDAC6. The note with it: read-out: % inhibition of HDAC6. The class given is biochemical.

The target in another assay is HDAC3 (Homo sapiens, UniProt O15379). Put plainly: HDAC isozyme panel at BPS Bioscience, HDAC3. It counts as biochemical. The note with it: read-out: % inhibition of HDAC3.

Molecules are shown by their SMILES.

HDAC3, sequence (O15379 whole entry): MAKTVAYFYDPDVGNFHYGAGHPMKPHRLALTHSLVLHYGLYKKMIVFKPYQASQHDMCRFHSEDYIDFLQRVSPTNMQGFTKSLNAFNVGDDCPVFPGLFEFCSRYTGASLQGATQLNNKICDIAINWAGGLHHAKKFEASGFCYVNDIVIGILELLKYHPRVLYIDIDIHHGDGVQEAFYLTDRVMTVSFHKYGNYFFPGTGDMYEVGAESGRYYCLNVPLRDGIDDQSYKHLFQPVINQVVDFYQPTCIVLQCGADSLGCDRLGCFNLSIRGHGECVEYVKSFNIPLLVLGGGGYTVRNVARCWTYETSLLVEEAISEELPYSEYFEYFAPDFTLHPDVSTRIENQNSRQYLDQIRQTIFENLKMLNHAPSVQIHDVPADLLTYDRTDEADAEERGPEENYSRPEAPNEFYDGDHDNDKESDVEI
HDAC3, sequence (Q9Y618 395-489 partner limits assumed): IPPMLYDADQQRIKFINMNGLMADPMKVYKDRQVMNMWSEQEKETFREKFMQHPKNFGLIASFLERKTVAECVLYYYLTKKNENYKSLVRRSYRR
HDAC1, sequence (Q13547 whole entry): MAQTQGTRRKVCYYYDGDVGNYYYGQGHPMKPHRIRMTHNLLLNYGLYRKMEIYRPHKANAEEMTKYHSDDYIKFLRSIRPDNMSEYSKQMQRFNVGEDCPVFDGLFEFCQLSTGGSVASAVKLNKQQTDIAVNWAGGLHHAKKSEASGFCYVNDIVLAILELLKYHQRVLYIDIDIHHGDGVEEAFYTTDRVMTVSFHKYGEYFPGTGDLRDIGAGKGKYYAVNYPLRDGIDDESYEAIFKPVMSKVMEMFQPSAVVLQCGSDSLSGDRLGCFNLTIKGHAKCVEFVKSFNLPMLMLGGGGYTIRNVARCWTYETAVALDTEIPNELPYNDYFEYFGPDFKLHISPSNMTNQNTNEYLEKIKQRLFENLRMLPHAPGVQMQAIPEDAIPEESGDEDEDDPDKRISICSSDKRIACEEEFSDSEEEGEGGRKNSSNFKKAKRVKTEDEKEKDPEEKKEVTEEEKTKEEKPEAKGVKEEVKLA

`CCOC(=O)NCCCC(=O)Nc1ccc(CO[Si](C)(C)C(C)(C)C)cc1` [Compound 27, Ethyl (4-((4-(((tert-butyldimethylsilyl)oxy)methyl)phenyl)amino)-4-oxobutyl)carbamate]: the “augmentation of CD3-stimulated anti-LAMP fluorescence increases (lytic granule exocytosis)” value in assay [1] is on record as 26%.
Consider `CCOC(=O)NCCCC(=O)Nc1ccc(O[Si](C)(C)C(C)(C)C)cc1` [Compound 28, Ethyl (4-((4-((tert-butyldimethylsilyl)oxy)phenyl)amino)-4-oxobutyl)carbamate], for which the “augmentation of CD3-stimulated anti-LAMP fluorescence increases (lytic granule exocytosis)” value in assay [1] was determined as 71%.
Take `O=C(CCCCCCC(=O)Nc1ccccc1)NO` [SAHA, suberoylanilide hydroxamic acid]: the inhibition at 10 µM amounted to 100 ± 0.3% at HDAC1, 100% at HDAC10, 100% on HDAC6 and 99 ± 0.7% on HDAC3.

The values above are taken from publication PMC5065774 (Bioorganic & medicinal chemistry, 2016).
